The values below come from ChEMBL document CHEMBL1129187, “Synthesis, enzymatic phosphorylation and antiviral activity of acyclic dienyl phosphonate derivatives of guanine” (Bioorg Med Chem Lett, 1996).

Experiment [1] is described as follows: Ratio of kinetic parameters of Vmax to Km was reported.
The test system of experiment [2] is MT4. Kind of experiment: Compound was evaluated for the inhibition of HIV-1 induced cytopathic effect in MT-4 cells. The note with it: Homo sapiens. Type of experiment: functional, cell-based. In general terms: Cytopathic effects are the visible damage that an infection or toxin causes in cultured cells.
A further experiment deals with C8166. Kind of experiment: Compound was evaluated for the inhibition of p24 viral antigen production in C-8166 cells. The note with it: Homo sapiens. The format is functional, cell-based.
Experiment [3] concerns Human alphaherpesvirus 1. Kind of experiment: Inhibitory activity against HSV-1 replication. The format is functional, organism-based.
Another experiment has as its system Vero. The experiment is described as follows: Cytotoxicity against Vero cells up to 250 uM; Not active. Type of experiment: functional, cell-based, Chlorocebus sabaeus.
Experiment [4] concerns MT4. The experiment is described as follows: Compound was evaluated for the concentration required to reduce the viability of MT-4 cells. Type of experiment: functional. The note with it: Homo sapiens.
The test system of experiment [5] is Human betaherpesvirus 5. The experiment is described as follows: Inhibition of HCMV replication in MRC-5 cells; No inhibition. The format is functional, organism-based. The note with it: mrc5.
Experiment [6] concerns Human betaherpesvirus 5. The experiment is described as follows: Inhibition of HCMV replication in Vero cells at 250 uM; No inhibition. Type of experiment: functional, organism-based.
Experiment [7] has as its system Human alphaherpesvirus 1. Kind of experiment: Tested for activity against HSV-1; Not active. The format is functional, organism-based.
The subject of experiment [8] is Human alphaherpesvirus 1. The experiment is described as follows: Anti-HSV-1 activity at 300 uM; Not active. The format is functional, organism-based.

Take `Nc1nc2c(ncn2[C@@H]2O[C@H](COP(=O)(O)O)[C@H](O)[C@@H]2O)c(=O)[nH]1`: in [1], the Ratio was determined as 100.
Turning to `Cc1cn([C@H]2C[C@H](N=[N+]=[N-])[C@@H](CO)O2)c(=O)[nH]c1=O` [ZIDOVUDINE], the EC50 in the experiment on MT4 [2] and in the experiment on C8166 was 0.04 µM throughout.
Turning to `Nc1ncnc2c1ncn2CCOCP(=O)(O)O` [ADEFOVIR], the EC50 – broadly, the concentration at which the effect is half-maximal – in the experiment with MT4 [2] turned out to be 20 µM; in the experiment with C8166 it was 1.5 µM. Also, half-maximal inhibition in the experiment on Human alphaherpesvirus 1 [3] (IC50) was put at 117 µM.
On to `C=C(/C=C/P(=O)(O)O)CCn1cnc2c(O)nc(N)nc21`, for which the EC50 with MT4 [2] came to 49 µM; in the experiment on C8166 it was 8 µM. The IC50 entry in the experiment with Vero, with Human betaherpesvirus 5 [5], in the experiment with Human betaherpesvirus 5 [6] and with Human alphaherpesvirus 1 [7] was “Not Active” each time. In the experiment with MT4 [4], the CC50 (usually the concentration that lowers cell viability or growth by half) is over 1000 µM. The Ratio in experiment [1] turned out to be 102.
The compound `C=C(/C=C/P(=O)(O)O)Cn1cnc2c(O)nc(N)nc21` displayed an EC50 with MT4 [2] of over 100 µM. The IC50 (usually the concentration that gives 50% inhibition) with Vero is “Not Active”; with Human betaherpesvirus 5 [5], “Not Active”; in the experiment on Human betaherpesvirus 5 [6] it was “Not Active”; in the experiment on Human alphaherpesvirus 1 [3], 119 µM; with Human alphaherpesvirus 1 [8], “Not Active”. This compound also yielded a CC50 in the experiment on MT4 [4] of over 1000 µM. The Ratio in experiment [1] amounted to 1.8.
Regarding `O=c1[nH]cnc2c1ncn2[C@H]1CC[C@@H](CO)O1` [DIDANOSINE], the EC50 with MT4 [2] came to 13 µM; with C8166, 0.9 µM. The same compound registered a CC50 in the experiment on MT4 [4] of over 1000 µM.
